Results on 65 sequences are retold here after the supplement of paper PMC11208160.
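Note: IS621 bridge recombinase in Escherichia coli cells against a fixed T5 target plasmid.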

This series in a line: recombinant UMI read abundance after kanamycin selection (control-corrected) (log10(CPM+1)); higher = more efficient recombination; extreme values may be limits of the assay; sequences stand for … in AGTGCAGAGAAAATCGGCCAGTTTTCTCTGCCTGCAGTCCGCATGCCGTGGGACCCCTTGGGTTCTAACCTGTTGCCTAGATTTATGCAGCGGACTGCCTTTCTCCCAAAGTGATAAACCGG…AGGTTGGTTTCACT; site = the 11-nt donor. The procedure: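 Pooled E. coli donor-specificity screen for the IS621 bridge recombinase. Each library member carries a reprogrammed 11-nt donor and a full-length LE bridge RNA expressed in cis from the natural promoter, with a paired donor-binding loop (8-nt LDG + 4-nt RDG) and a target-binding loop fixed to T5. It is co-electroporated with a T5 target plasmid; recombinase is induced with 0.07 mM IPTG and recombinants are selected on kanamycin. UMIs are counted as CPM, averaged over two biological replicates and corrected by the unselected control. Molecule = full bridge RNA written as DNA, built from the T5 scaffold: LDG = donor specificity nt 1-8, RDG = reverse complement of nt 8-11.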
For “ACACAACCATGGACCGGTTTTCCCGGTAATCCGTATTTGAC (site ACACACCCTGT)”, the “recombinant UMI read abundance (log10)” value was found to be 0.

On to “ACACAACCATGGACCGGTTTTCCCGGTAATCCGTATTTGAC (site ACACAGCCTGT)”, for which the “recombinant UMI read abundance (log10)” value was determined as 0.668.

As for “ACACAACCATGGACCGGTTTTCCCGGTAATCCGTATTTGAC (site ACACATCCTGT)”, the “recombinant UMI read abundance (log10)” value amounted to 0. To “ACACATCCATGGACCGGTTTTCCCGGTAATCCGTATTTGAT (site ACACATCCTAT)” belongs 1.34. As for “ACACATCCATGGACCGGTTTTCCCGGTAATCCGTATTTGAT (site ACACATCCTCT)”, the “recombinant UMI read abundance (log10)” value was 0.0152.

As to “ACACATCCATGGACCGGTTTTCCCGGTAATCCGTATTTGAT (site ACACATCCTGT)”, the “recombinant UMI read abundance (log10)” value was 0.

On to “ACACATCCATGGACCGGTTTTCCCGGTAATCCGTATTTGAT (site ACACATCCTTT)”, for which the “recombinant UMI read abundance (log10)” value was determined as 0.0785. For “ACACATGCATGGACCGGTTTTCCCGGTAATCCGTATTTGAC (site ACACATACTGT)” the value was 2.59.

With “ACACATGCATGGACCGGTTTTCCCGGTAATCCGTATTTGAC (site ACACATCCTGT)”, the “recombinant UMI read abundance (log10)” value worked out at 1.71. Take “ACACATGCATGGACCGGTTTTCCCGGTAATCCGTATTTGAC (site ACACATGCTGT)”: the “recombinant UMI read abundance (log10)” value came out at 2.6. For “ACACATGCATGGACCGGTTTTCCCGGTAATCCGTATTTGAC (site ACACATTCTGT)” the value was 0.598; for “ACACATTCATGGACCGGTTTTCCCGGTAATCCGTATTTGAC (site ACACATACTGT)”, 0.745; for “ACACATTCATGGACCGGTTTTCCCGGTAATCCGTATTTGAC (site ACACATCCTGT)”, 0.331.

Consider “ACACATTCATGGACCGGTTTTCCCGGTAATCCGTATTTGAC (site ACACATGCTGT)”, for which the “recombinant UMI read abundance (log10)” value came to 0. Regarding “ACACATTCATGGACCGGTTTTCCCGGTAATCCGTATTTGAC (site ACACATTCTGT)”, the “recombinant UMI read abundance (log10)” value turned out to be 2.74.

Take “ACACCAGCATGGACCGGTTTTCCCGGTAATCCGTATTTGAT (site ACACCAGCTAT)”: the “recombinant UMI read abundance (log10)” value is 2.01. Turning to “ACACCCACATGGACCGGTTTTCCCGGTAATCCGTATTTGAG (site ACACCCACTCT)”, the “recombinant UMI read abundance (log10)” value was 1.37. For “ACACGAACATGGACCGGTTTTCCCGGTAATCCGTATTTGTC (site AAACGAACTGA)”, the “recombinant UMI read abundance (log10)” value was determined as 0. For “ACACGAACATGGACCGGTTTTCCCGGTAATCCGTATTTGTC (site ACAAGAACTGA)” the value was 0; for “ACACGAACATGGACCGGTTTTCCCGGTAATCCGTATTTGTC (site ACACAAACTGA)”, 1.4; for “ACACGAACATGGACCGGTTTTCCCGGTAATCCGTATTTGTC (site ACACCAACTGA)”, 0. For “ACACGAACATGGACCGGTTTTCCCGGTAATCCGTATTTGTC (site ACACGAACTAA)” the value was 1.83; for “ACACGAACATGGACCGGTTTTCCCGGTAATCCGTATTTGTC (site ACACGAACTCA)”, 0.338; for “ACACGAACATGGACCGGTTTTCCCGGTAATCCGTATTTGTC (site ACACGAACTGA)”, 2.77. To “ACACGAACATGGACCGGTTTTCCCGGTAATCCGTATTTGTC (site ACACGAACTGC)” belongs 0; to “ACACGAACATGGACCGGTTTTCCCGGTAATCCGTATTTGTC (site ACACGAACTGG)”, 1.74.

Take “ACACGAACATGGACCGGTTTTCCCGGTAATCCGTATTTGTC (site ACACGAACTGT)”: the “recombinant UMI read abundance (log10)” value was found to be 1.41. For “ACACGAACATGGACCGGTTTTCCCGGTAATCCGTATTTGTC (site ACACGAACTTA)” the value was 1.96; for “ACACGAACATGGACCGGTTTTCCCGGTAATCCGTATTTGTC (site ACACGACCTGA)”, 0; for “ACACGAACATGGACCGGTTTTCCCGGTAATCCGTATTTGTC (site ACACGAGCTGA)”, 0.

On to “ACACGAACATGGACCGGTTTTCCCGGTAATCCGTATTTGTC (site ACACGATCTGA)”, for which the “recombinant UMI read abundance (log10)” value stood at 1.55. As to “ACACGAACATGGACCGGTTTTCCCGGTAATCCGTATTTGTC (site ACACGCACTGA)”, the “recombinant UMI read abundance (log10)” value stood at 0. For “ACACGAACATGGACCGGTTTTCCCGGTAATCCGTATTTGTC (site ACACGGACTGA)” the value was 1.61; for “ACACGAACATGGACCGGTTTTCCCGGTAATCCGTATTTGTC (site ACACGTACTGA)”, 0. For “ACACGAACATGGACCGGTTTTCCCGGTAATCCGTATTTGTC (site ACACTAACTGA)” the value was 0; for “ACACGAACATGGACCGGTTTTCCCGGTAATCCGTATTTGTC (site ACAGGAACTGA)”, 0; for “ACACGAACATGGACCGGTTTTCCCGGTAATCCGTATTTGTC (site ACATGAACTGA)”, 0. Consider “ACACGAACATGGACCGGTTTTCCCGGTAATCCGTATTTGTC (site ACCCGAACTGA)”, for which the “recombinant UMI read abundance (log10)” value is 0. For “ACACGAACATGGACCGGTTTTCCCGGTAATCCGTATTTGTC (site ACGCGAACTGA)” the value was 0. To “ACACGAACATGGACCGGTTTTCCCGGTAATCCGTATTTGTC (site ACTCGAACTGA)” belongs 0.747. Take “ACACGAACATGGACCGGTTTTCCCGGTAATCCGTATTTGTC (site AGACGAACTGA)”: the “recombinant UMI read abundance (log10)” value was determined as 0. To “ACACGAACATGGACCGGTTTTCCCGGTAATCCGTATTTGTC (site ATACGAACTGA)” belongs 0.0105; to “ACACGAACATGGACCGGTTTTCCCGGTAATCCGTATTTGTC (site CCACGAACTGA)”, 0.924. On to “ACACGAACATGGACCGGTTTTCCCGGTAATCCGTATTTGTC (site GCACGAACTGA)”, for which the “recombinant UMI read abundance (log10)” value was 0. With “ACACGAACATGGACCGGTTTTCCCGGTAATCCGTATTTGTC (site TCACGAACTGA)”, the “recombinant UMI read abundance (log10)” value is 0. To “ACACGGACATGGACCGGTTTTCCCGGTAATCCGTATTTGGC (site ACACGGACTGC)” belongs 2.58; to “ACACGTACATGGACCGGTTTTCCCGGTAATCCGTATTTGTC (site ACACGAACTGA)”, 0. For “ACACGTACATGGACCGGTTTTCCCGGTAATCCGTATTTGTC (site ACACGCACTGA)” the value was 0.199; for “ACACGTACATGGACCGGTTTTCCCGGTAATCCGTATTTGTC (site ACACGGACTGA)”, 0; for “ACACGTACATGGACCGGTTTTCCCGGTAATCCGTATTTGTC (site ACACGTACTGA)”, 1.49. To “ACAGACACATGGACCGGTTTTCCCGGTAATCCGTATTTGTC (site ACAGACACTGA)” belongs 2.7. “ACAGACCCATGGACCGGTTTTCCCGGTAATCCGTATTTGCC (site ACAGACCCTGG)”: the “recombinant UMI read abundance (log10)” value amounted to 1.2.

Take “ACAGCATCATGGACCGGTTTTCCCGGTAATCCGTATTTGCG (site ACAGCATCTCG)”: the “recombinant UMI read abundance (log10)” value turned out to be 2.33. For “ACAGCATCATGGACCGGTTTTCCCGGTAATCCGTATTTGCG (site ACAGTATCTTG)” the value was 0. Turning to “ACAGCTTCATGGACCGGTTTTCCCGGTAATCCGTATTTGCA (site ACAGCTTCTTG)”, the “recombinant UMI read abundance (log10)” value was found to be 2.59. For “ACAGCTTCATGGACCGGTTTTCCCGGTAATCCGTATTTGCA (site ACAGTATCTTG)”, the “recombinant UMI read abundance (log10)” value was 2.16. Regarding “ACAGTACCATGGACCGGTTTTCCCGGTAATCCGTATTTGAA (site ACAGTACCTTT)”, the “recombinant UMI read abundance (log10)” value is 0.501. To “ACAGTACCATGGACCGGTTTTCCCGGTAATCCGTATTTGAA (site ACAGTATCTTG)” belongs 0.

In the case of “ACAGTATCATGGACCGGTTTTCCCGGTAATCCGTATTTGCA (site AAAATATCTTG)”, the “recombinant UMI read abundance (log10)” value came to 1.79. As to “ACAGTATCATGGACCGGTTTTCCCGGTAATCCGTATTTGCA (site AAAGAATCTTG)”, the “recombinant UMI read abundance (log10)” value was found to be 1.57. For “ACAGTATCATGGACCGGTTTTCCCGGTAATCCGTATTTGCA (site AAAGTAACTTG)” the value was 0.587; for “ACAGTATCATGGACCGGTTTTCCCGGTAATCCGTATTTGCA (site AAAGTATCTAG)”, 0; for “ACAGTATCATGGACCGGTTTTCCCGGTAATCCGTATTTGCA (site AAAGTATCTTC)”, 0.00296. For “ACAGTATCATGGACCGGTTTTCCCGGTAATCCGTATTTGCA (site AAAGTATCTTG)” the value was 2.1. For “ACAGTATCATGGACCGGTTTTCCCGGTAATCCGTATTTGCA (site AAAGTCTCTTG)”, the “recombinant UMI read abundance (log10)” value was determined as 0.0144.
